According to patent EP1268431B1 (Wyeth, priority 2000, dated 2001):
Where “and” joins values, the source holds several entries; their conditions need not be identical. Equal values may be shown once. Read-outs that look alike come from different tables or passages of the source.

Assays:
c-Src = molecular target: T1, c-Src (Homo sapiens, UniProt P12931); experiment: c-Src Kinase Assay (ELISA format); format: biochemical
T1 construct: purchased Upstate Biotechnologies
Experimental: Inhibitors of Src (partially purified preparation purchased from Upstate Biotechnologies) tyrosine kinase activity are analyzed in an ELISA format. […] Horseradish Peroxidase (HRP)-conjugated anti-phosphotyrosine is used to detect phosphorylated peptide via a color reaction. Conditions recommended by the manufacturer are employed.
Reaction conditions: Five microliter aliquots of each compound prepared fresh at the time of the assay are added as a solution in 10mM HEPES pH 7.5, 10% DMSO to the reaction well. Thirty-five microliters of reaction mix containing Src, buffer and peptide/bovine serum albumin mix are added to the compound wells and incubated at 30°C for 10 minutes (reaction buffer: 50mM TrisHCl pH 7.5, 10mM MgCl2, 0.1mM EGTA, 0.5mM Na3VO4). The reaction is started by addition of 10 microliters of ATP, incubated at 30°C for 1 hour, and stopped by addition of 20 microliters of 0.5M EDTA. The reaction mixture with the phosphorylated peptide is then transferred to a streptavidin-coated microtiter plate (provided in the kit) and allowed to bind for 20 minutes. Unbound peptide and reaction mixture is decanted and the plate is washed with PBS six times. HRP-conjugated phosphotyrosine antibody supplied in the kit is incubated with the plate for one hour, then decanted. The plate is again washed with PBS six times.
Activity is determined as % inhibition as calculated by the formula: (1 - Abs/Abs(max)) x 100 = % inhibition.

[1] = test system: Rat2 fibroblasts stably transformed with a plasmid containing a CMV promotor controlled v-Src/Hu c-Src fusion gene; experiment: Anchorage Independent Src-transformed Fibroblast Proliferation Assay
[2] = Rattus norvegicus, Rat2, 120 h, read-out: anch-indep src-tx fib IC50
[3] = Rattus norvegicus, Rat2, 120 h, read-out: anch-indep src-tx fib IC50, suspension growth, MTS on Day 5
[4] = read-out: anch-indep src-tx fib IC50, suspension growth, MTS on Day 5

| Compound | IC50 (c-Src) | also measured |
| --- | --- | --- |
| COc1cc(Nc2c(C#N)cnc3cc(-c4ccc(N5CCN(C)CC5)nc4)ccc23)c(Cl)cc1Cl [Example 198, 4-(2,4-dichloro-5-methoxyanilino)-7-[6-(4-methyl-1-piperazinyl)-3-pyridinyl]-3-quinolinecarbonitrile] | 1.9 nM |  |
| COc1cc(Nc2c(C#N)cnc3cc(-c4ccc(CCN5CCOCC5)cc4)c(OC)cc23)c(Cl)cc1Cl [Example 40, 4-(2,4-Dichloro-5-methoxyanilino)-6-methoxy-7-{4-[2-(4-morpholinyl)ethyl]phenyl}-3-quinolinecarbonitrile] | 10 nM |  |
| COc1cc(Nc2c(C#N)cnc3cc(-c4ccc(CN5CCN(C)CC5)o4)ccc23)c(Cl)cc1Cl [Example 41] |  | IC50 [1, 2]: 380 nM |
| COc1cc(Nc2c(C#N)cnc3cc(C#CCN4CCOCC4)ccc23)c(Cl)cc1Cl [Example 146, 4-(2,4-dichloro-5-methoxyanilino)-7-[3-(4-morpholinyl)-1-propynyl]-3-quinolinecarbonitrile] |  | IC50 [1, 3]: 6500 nM |
| COc1cc(Nc2c(C#N)cnc3cc(-c4cc(CN5CCOCC5)cs4)ccc23)c(Cl)cc1Cl [Example 68, 4-(2,4-Dichloro-5-methoxyanilino)-7-[4-(4-morpholinylmethyl)-2-thienyl]-3-quinolinecarbonitrile] | 1.5 nM |  |
| CCN1CCN(c2ccc(-c3ccc4c(Nc5cc(OC)c(Cl)cc5Cl)c(C#N)cnc4c3)cn2)CC1 [Example 197, 4-(2,4-dichloro-5-methoxyanilino)-7-[6-(4-ethyl-1-piperazinyl)-3-pyridinyl]-3-quinolinecarbonitrile] | 4.4 nM |  |
| CCN1CCN(Cc2ccc(-c3ccc4c(Nc5cc(OC)c(Cl)cc5Cl)c(C#N)cnc4c3)cc2)CC1 [Example 30, 4-(2,4-Dichloro-5-methoxyanilino)-7-{4-[(4-ethyl-1-piperazinyl)methyl]phenyl}-3-quinolinecarbonitrile] | 4.4 nM and 1.5 nM |  |
| COc1cc(Nc2c(C#N)cnc3cc(-c4ccc(CCN5CCOCC5)cc4)ccc23)c(Cl)cc1Cl [Example 27, 4-(2,4-Dichloro-5-methoxyanilino)-7-{4-[2-(4-morpholinyl)ethyl]phenyl}1-3-quinolinecarbonitrile] |  | IC50 [1, 3]: 1020 nM |
| COc1cc(Nc2c(C#N)cnc3cc(-c4csc(C5OCCO5)c4)ccc23)c(Cl)cc1Cl [Example 42, 4-(2,4-Dichloro-5-methoxyanilino)-7-[5-(1,3-dioxolan-2-yl)-3-thienyl]-3-quinolinecarbonitrile] | 2.7 nM |  |
| N#Cc1cnc2cc(-c3csc(C=O)c3)ccc2c1Nc1ccc(Cl)cc1Cl [Example 44, 4-(2,4-Dichloroanilino)-7-(5-formyl-3-thienyl)-3-quinolinecarbonitrile] | 25 nM |  |
| COc1cc(Nc2c(C#N)cnc3cc(-c4cnc(CN5CCOCC5)n4C)ccc23)c(Cl)cc1Cl [Example 226, 4-(2,4-dichloro-5-methoxyanilino)-7-[1-methyl-2-(4-morpholinylmethyl)-1H-imidazol-5-yl]-3-quinolinecarbonitrile] | 31 nM |  |
| COc1cc(Nc2c(C#N)cnc3cc(-c4ccc(CN5CCOCC5)c(CN5CCOCC5)c4)ccc23)c(Cl)cc1Cl [Example 34, 7-[3,4-Bis(4-morpholinylmethyl)phenyl]-4-(2,4-dichloro-5-methoxyanilino)-3-quinolinecarbonitrile] | 3 nM |  |
| COc1cc(Nc2c(C#N)cnc3cc(-c4cnc(C=O)n4C)ccc23)c(Cl)cc1Cl [Example 96, 4-(2,4-Dichloro-5-methoxyanilino)-7-(2-formyl-1-methyl-1H-imidazol-5-yl)-3-quinolinecarbonitrile] | 240 nM |  |
| COc1cc(Nc2c(C#N)cnc3cc(-c4cnc(CN5CCN(C)CC5)n4C)ccc23)c(Cl)cc1Cl [Example 227, 4-(2,4-dichloro-5-methoxyanilino)-7-{1-methyl-2-[(4-methyl-1-piperazinyl)methyl]-1H-imidazol-5-yl}-3-quinolinecarbonitrile] | 25 nM |  |
| 4-(2,4-Dichloro-5-methoxyanilino)-6-methoxy-7-(1H-pyrrol-1-yl)-3-quinolinecarbonitrile [Example 59] | 12 nM and 15 nM |  |
| COc1cc(Nc2c(C#N)cnc3cc(-c4ccc(CN5CCOCC5)cn4)ccc23)c(Cl)cc1Cl [Example 57, 4-(2,4-Dichloro-5-methoxyanilino)-7-[5-(4-morpholinylmethyl)-2-pyridinyl]-3-quinolinecarbonitrile] |  | IC50 [1, 2]: 50 nM |
| COc1cc(Nc2c(C#N)cnc3cc(-c4ccc(CN5CC[S+]([O-])CC5)cc4)ccc23)c(Cl)cc1Cl [Example 151, 4-[(2,4-dichloro-5-methoxyphenyl)amino]-7-{4-[(1-oxido-4-thiomorpholinyl)methyl]phenyl}-3-quinolinecarbonitrile] | 4.7 nM |  |

| Compound | IC50 (c-Src) | also measured |
| --- | --- | --- |
| COc1cc(Nc2c(C#N)cnc3cc(C#CCCl)ccc23)c(Cl)cc1Cl [Example 152, 7-(3-chloro-1-propynyl)-4-[(2,4-dichloro-5-methoxyphenyl)amino]-3-quinolinecarbonitrile] |  | IC50 [1, 3]: 4800 nM; IC50 [1, 4]: 3800 nM |
| COc1cc(Nc2c(C#N)cnc3cc(-c4cccc([N+](=O)[O-])c4)ccc23)c(Cl)cc1Cl [Example 122, 4-(2,4-Dichloro-5-methoxyanilino)-7-(3-nitrophenyl)-3-guinolinecarbonitrile] |  | inhibition at 10 µM (c-Src; at 10 µM): 44% |
| COc1cc(Nc2c(C#N)cnc3cc(-c4ccc(/C=C/CN5CCOCC5)s4)ccc23)c(Cl)cc1Cl [Example 21, 4-(2,4-Dichloro-5-methoxyanilino)-7-{5-[(E)-3-(4-morpholinyl)-1-propenyl]-2-thienyl}-3-quinolinecarbonitrile] | 40 nM and 9 nM |  |
| COc1cc(Nc2c(C#N)cnc3cc(-c4ccc(N5CCOCC5)nc4)ccc23)c(Cl)cc1Cl [Example 185, 4-(2,4-dichloro-5-methoxyanilino)-7-[6-(4-morpholinyl)-3-pyridinyl]-3-quinolinecarbonitrile] | 3.4 nM |  |
| COc1cc(Nc2c(C#N)cnc3cc(-c4ccc(CN5CCC(C(=O)O)CC5)cn4)ccc23)c(Cl)cc1Cl [Example 177, 1-{6-[3-cyano-4-(2,4-dichloro-5-methoxyphenylamino)-quinolin-7yl]-pyridin-3-ylmethyl}-piperidine-4-carboxylic acid] | 0.69 nM |  |
| N#Cc1cnc2cc(-c3csc(CN4CCOCC4)c3)ccc2c1Nc1ccc(Cl)cc1F [Example 1, 4-(4-Chloro-2-fluoroanilino)-7-[5-(4-morpholinylmethyl)-3-thienyl]-3-quinolinecarbonitrile] | 25 nM |  |
| 4-(2,4-dichloro-5-methoxyanilino)-7-{4-[(4-methyl-1-piperazinyl)]phenyl}-3-quinolinecarbonitrile [Example 218] |  | IC50 [1, 4]: 600 nM |
| COc1cc(Nc2c(C#N)cnc3cc(-c4csc(C=O)c4)ccc23)c(Cl)cc1Cl [Example 43, 4-(2,4-Dichloro-5-methoxyanilino)-7-(5-formyl-3-thienyl)-3-quinolinecarbonitrile] | 1.7 nM |  |
| COc1cc(Nc2c(C#N)cnc3cc(-c4cccc(CN5CCOCC5)c4)ccc23)c(Cl)cc1Cl [Example 26, 4-(2.4-Dichloro-5-methoxyanilino)-7-[3-(4-morpholinylmethyl)phenyl]-3-quinolinecarbonitrile] | 24 nM |  |
| COc1cc(Nc2c(C#N)cnc3cc(-c4cccc(CN5CCOCC5)c4)c(OC)cc23)c(Cl)cc1Cl [Example 39, 4-(2,4-Dichloro-5-methoxyanilino)-6-methoxy-7-[3-(4-morpholinylmethyl]phenyl}-3-quinolinecarbonitrile] | 220 nM |  |
| COc1cc(Nc2c(C#N)cnc3cc(-c4cnc(CN5CCN(C)CC5)n4C)c(OC)cc23)c(Cl)cc1Cl [Example 233, 4-(2,4-dichloro-5-methoxyanilino)-6-methoxy-7-{1-methyl-2-[(4-methyl-1-piperazinyl)methyl]-1H-imidazol-5-yl}-3-quinolinecarbonitrile] | 28 nM |  |
| N#Cc1cnc2cc(C#CCO)ccc2c1Nc1ccc(Cl)cc1Cl [Example 14, 4-(2,4-Dichloroanilino)-7-(3-hydroxy-1-propynyl)-3-quinolinecarbonitrile] |  | inhibition at 1 µM (c-Src; at 1 µM): 40% |
| COc1cc(Nc2c(C#N)cnc3ccc(-c4csc(CN5CCOCC5)c4)cc23)c(Cl)cc1Cl [Example 50, 4-(2.4-Dichloro-5-methoxyanilino)-6-[5-(4-morpholinylmethyl)-3-thienyl]3-quinolinecarbonitrile] | 111 nM |  |
| COc1cc(Nc2c(C#N)cnc3ccc(-c4csc(C=O)c4)cc23)c(Cl)cc1Cl [Example 45, 4-(2,4-Dichloro-5-methoxyanilino)-6-(5-formyl-3-thienyl)-3-quinolinecarbonitrile] | 51 nM |  |
| N#Cc1cnc2cc(-c3ccc(-c4ccccn4)s3)ccc2c1Nc1ccc(Cl)cc1Cl [Example 18, 4-(2,4-Dichloroanilino)-7-[5-(2-pyridinyl)-2-thienyl]-3-quinolinecarbonitrile] | 180 nM |  |
| CCN1CCN(Cc2ccc(-c3cc4ncc(C#N)c(Nc5cc(OC)c(Cl)cc5Cl)c4cc3OC)cc2)CC1 [Example 31, 4-(2,4-Dichloro-5-methoxyanilino)-7-{4-[(4-ethyl-1-piperazinyl)methyl]phenyl}-6-methoxy-3-quinolinecarbonitrile] | 8.3 nM and 5.6 nM |  |
